In patent US8236987B2, “Selective estrogen receptor modulator compositions and methods for treatment of disease” (The Regents of the University of California, priority 2007, dated 2012):
“Also recorded” adds a separate entry of the source. Where two headings read alike, the source gives them in different places.

What was measured:
[1] = system: GABAB receptor-mediated outward current in hypothalamic arcuate (dopamine, POMC) neurons; membrane associated estrogen receptor; assay: Whole-cell patch voltage clamp: baclofen-induced GABAB response (GIRK outward current) in hypothalamic arcuate neurons; format: cell-based, guinea pig
[2] = system: uteri of ovariectomized C57BL/6 mice; assay: Uterine size and weight in ovariectomized mice (uterotropic action); format: in vivo; conditions: 1 μg daily for 2 days, compared with oil vehicle
Protocol: Wild-type C57BL/6 mice in these studies were obtained from Jackson laboratories. All animals were maintained under controlled temperature (25° C.) and photoperiod conditions (14-h light, 10-h dark; lights on between 0700 and 2100) with food and water ad libitum. Adult mice were ovariectomized under isoflurane anesthesia, and allowed to recover for 1 week. […] The uteri were collected, weighed and fixed in 4% paraformaldehyde for later histological analysis (data not shown).

full length (ER)α = biological target: T1, full length (ER)α (Homo sapiens, UniProt P03372); assay: Estrogen receptor binding assay (spin column, [3H]estradiol competition), (ER)α
T1 construct: purchased PanVera Corp, Madison, Wis., USA
T1 sequence (P03372 1-595): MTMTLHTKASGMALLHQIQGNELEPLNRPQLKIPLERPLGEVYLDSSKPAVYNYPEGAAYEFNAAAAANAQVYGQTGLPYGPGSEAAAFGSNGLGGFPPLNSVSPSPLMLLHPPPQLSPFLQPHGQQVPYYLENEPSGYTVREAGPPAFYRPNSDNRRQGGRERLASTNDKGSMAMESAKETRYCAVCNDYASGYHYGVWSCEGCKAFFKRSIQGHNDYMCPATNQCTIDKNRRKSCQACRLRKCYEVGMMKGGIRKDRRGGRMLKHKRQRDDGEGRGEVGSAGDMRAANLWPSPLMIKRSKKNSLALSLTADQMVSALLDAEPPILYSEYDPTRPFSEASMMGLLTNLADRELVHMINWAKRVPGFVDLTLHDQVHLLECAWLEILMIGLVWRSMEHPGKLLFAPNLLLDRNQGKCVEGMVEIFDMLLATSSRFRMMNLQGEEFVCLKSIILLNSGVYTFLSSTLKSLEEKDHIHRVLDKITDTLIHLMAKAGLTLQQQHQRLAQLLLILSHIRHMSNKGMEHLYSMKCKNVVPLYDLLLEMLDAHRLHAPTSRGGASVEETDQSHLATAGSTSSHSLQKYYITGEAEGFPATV

full length (ER)β = biological target: T2, full length (ER)β (Homo sapiens, UniProt Q92731); assay: Estrogen receptor binding assay (spin column, [3H]estradiol competition), (ER)β
T2 construct: to full length (ER)α or (ER)β*; purchased PanVera Corp, Madison, Wis., USA
T2 sequence (Q92731 whole entry): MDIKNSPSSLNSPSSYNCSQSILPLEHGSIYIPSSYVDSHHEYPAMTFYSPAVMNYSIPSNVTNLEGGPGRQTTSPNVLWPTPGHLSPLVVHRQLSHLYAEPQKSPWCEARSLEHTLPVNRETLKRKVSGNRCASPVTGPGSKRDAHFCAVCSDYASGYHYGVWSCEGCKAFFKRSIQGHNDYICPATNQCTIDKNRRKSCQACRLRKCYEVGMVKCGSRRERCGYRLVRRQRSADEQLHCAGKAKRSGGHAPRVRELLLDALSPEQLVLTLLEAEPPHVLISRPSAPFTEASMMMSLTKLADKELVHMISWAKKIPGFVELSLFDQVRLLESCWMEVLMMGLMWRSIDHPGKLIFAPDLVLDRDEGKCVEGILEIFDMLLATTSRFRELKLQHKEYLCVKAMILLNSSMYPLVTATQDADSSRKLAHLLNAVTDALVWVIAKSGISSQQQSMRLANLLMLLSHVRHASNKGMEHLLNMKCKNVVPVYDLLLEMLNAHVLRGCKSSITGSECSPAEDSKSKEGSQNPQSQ

[3] = 10 μM (PD98059 in the pipette), together with 17β-estradiol

## O=C(c1ccc(OCCN2CCCCC2)cc1)c1c(-c2ccc(O)cc2)sc2cc(O)ccc12 [Raloxifene, raloxifene]
[1]
  effect on the baclofen response (in words): completely mimicked the actions of 17β-estradiol; also recorded: behave like 17β-estradiol

## O=C(O)CN(CC(=O)O)c1ccccc1OCCOc1ccccc1N(CC(=O)O)CC(=O)O [BAPTA, 1,2-bis-(o-aminophenoxyethane)-N,N,N′,N′-tetraacetic acid]
[1]; 10 mM in the internal solution replacing EGTA, with 17β-estradiol
  effect on the 17β-estradiol attenuation of the baclofen response (in words): still observed

## CC/C(=C(\c1ccccc1)c1ccc(/C=C/C(=O)O)cc1)c1ccccc1 [GW-5638]
[1]; 1 μM, substance alone
  effect on the baclofen response (in words): significantly more efficacious than 17β-estradiol; also recorded: behave like 17β-estradiol

## C[C@]12CC[C@@H]3c4ccc(O)cc4C[C@@H](CCCCCCCCC[S+]([O-])CCCC(F)(F)C(F)(F)F)[C@H]3[C@@H]1CC[C@@H]2O (some centres unmarked) [ICI 182,780]
[1]; 1 μM, substance alone
  effect on the baclofen response (in words): no effect
[1]; 1 μM, together with 17β-estradiol (100 nM)
  effect on the 17β-estradiol attenuation of the baclofen response (in words): blocked
[1]; 1 μM, together with 17β-estradiol (100 nM), listed as ICI-182,780
  effect on the 17β-estradiol attenuation of the baclofen response (in words): antagonizes the 17β-estradiol response

## CC/C(=C(\c1ccccc1)c1ccc(OCCN(C)C)cc1)c1ccccc1 [Tamoxifen, tamoxifen]
[1]
  effect on the 17β-estradiol attenuation of the baclofen response (in words): did not attenuate the effects of 17β-estradiol
  effect on the baclofen response (in words): inactive

## 17β-estradiol 17-hemisuccinate: BSA [17β-estradiol-BSA]
[1]; 100 nM, substance alone
  effect on the baclofen response (in words): fully efficacious in inhibiting the baclofen response; also recorded: inhibited the baclofen response; also recorded: identical response to free 17β-estradiol

## C[C@]12CC[C@@H]3c4ccc(O)cc4CC[C@H]3[C@@H]1CC[C@H]2O [17α-estradiol]
[1]; 1 μM, substance alone
  effect on the baclofen response (in words): no effect; also recorded: inactive; also recorded: no effects were observed

## CC(=O)c1c(O)c(C)c(O)c(Cc2c(O)c3c(c(C(=O)/C=C/c4ccccc4)c2O)OC(C)(C)C=C3)c1O [rottlerin]
[1]
  effect on the 17β-estradiol attenuation of the baclofen response (in words): completely blocked

## C[C@]12CC[C@@H]3c4ccc(OC(=O)c5ccccc5)cc4CC[C@H]3[C@@H]1CC[C@@H]2O [estradiol benzoate]
[2]
  uterine size: noticeable increase in uterine size

## Nc1ncnc2c1ncn2[C@@H]1O[C@@H]2COP(O)(=S)O[C@H]2[C@H]1O (some centres unmarked) [Rp-cAMP]
[1]; 200 μM, intracellular dialysis, with 17β-estradiol
  effect on the 17β-estradiol attenuation of the baclofen response (in words): abolished

## Cn1c2ccccc2c2c3c(c4c5ccccc5n(CCC#N)c4c21)CNC3=O [Gö6976]
[1]; concentration not given, with 17β-estradiol
  effect on the 17β-estradiol attenuation of the baclofen response (in words): without effect

## COc1ccc2c(c1)CC[C@@H]1[C@@H]2CC[C@]2(C)[C@@H](NCCCCCCN3C(=O)C=CC3=O)CC[C@@H]12 [Compound U73122]
[1]; [3]
  effect on the 17β-estradiol attenuation of the baclofen response (in words): blocked

## 4-hydroxytamoxifen
Full length (ER)α
  Relative binding affinity (ER)α: 36%
Full length (ER)β
  Relative binding affinity (ER)β: 43%
[1]
  block of the baclofen response: 25%
  effect on the baclofen response (in words): behave like 17β-estradiol

## CN(C)CCCn1cc(C2=C(c3c[nH]c4ccccc34)C(=O)NC2=O)c2ccccc21.Cl [BIS, bisindolylmaleimide I hydrochloride]
[1]
  effect on the 17β-estradiol attenuation of the baclofen response (in words): nearly eliminated the effects of 17β-estradiol

## N#CC(=C(/N)Sc1ccccc1N)/C(C#N)=C(/N)Sc1ccccc1N [Compound U0126]
[1]; 5 μM, with 17β-estradiol
  effect on the 17β-estradiol attenuation of the baclofen response (in words): did not affect 17β-estradiol inhibition of baclofen responses

## C[C@]12CC[C@@H]3c4ccc(O)cc4CC[C@H]3[C@@H]1CC[C@@H]2O [17β-estradiol]
[1]
  R2/R1 (second over first baclofen response): 58.6±3.4%
  decrease in the response to a second application of baclofen (GABAB outward current): 41%
[1]; 100 nM, substance alone
  effect on the baclofen response (in words): no effect

## Cl.Cl.O=S(=O)(NCCNC/C=C/c1ccc(Br)cc1)c1cccc2cnccc12 [Compound H89]
[1]; [3]
  effect on the 17β-estradiol attenuation of the baclofen response (in words): blocked

## Ac-LGLNLKEYNLV-OH [Gq peptide]
[1]
  effect on the 17β-estradiol attenuation of the baclofen response (in words): significantly blocked

## COc1cccc(-c2cc(=O)c3ccccc3o2)c1N [PD98059]
[1]; [3]
  effect on the 17β-estradiol attenuation of the baclofen response (in words): did not affect 17β-estradiol inhibition of baclofen responses
[1]; substance 10 μM in the pipette together with 17β-estradiol
  R2/R1 (second over first baclofen response), substance + 17β-estradiol: 66.1±11.8%

## COc1ccc2c(c1)CC[C@@H]1[C@@H]2CC[C@]2(C)[C@@H](NCCCCCCN3C(=O)CCC3=O)CC[C@@H]12 [Compound U73343]
[1]; [3]
  effect on the 17β-estradiol attenuation of the baclofen response (in words): no effect
